Data on 23 compounds can be found in patent US11407748B2, “Substituted pyrido[1,2-a]pyrimidines and pyrazino[1,2-a]pyrimidines for enhancing AMPA receptor function” (Takeda Pharmaceutical Company Limited, priority 2017, dated 2022).

T1 sequence (P42261 19-906 isoform P42261-2 limits assumed): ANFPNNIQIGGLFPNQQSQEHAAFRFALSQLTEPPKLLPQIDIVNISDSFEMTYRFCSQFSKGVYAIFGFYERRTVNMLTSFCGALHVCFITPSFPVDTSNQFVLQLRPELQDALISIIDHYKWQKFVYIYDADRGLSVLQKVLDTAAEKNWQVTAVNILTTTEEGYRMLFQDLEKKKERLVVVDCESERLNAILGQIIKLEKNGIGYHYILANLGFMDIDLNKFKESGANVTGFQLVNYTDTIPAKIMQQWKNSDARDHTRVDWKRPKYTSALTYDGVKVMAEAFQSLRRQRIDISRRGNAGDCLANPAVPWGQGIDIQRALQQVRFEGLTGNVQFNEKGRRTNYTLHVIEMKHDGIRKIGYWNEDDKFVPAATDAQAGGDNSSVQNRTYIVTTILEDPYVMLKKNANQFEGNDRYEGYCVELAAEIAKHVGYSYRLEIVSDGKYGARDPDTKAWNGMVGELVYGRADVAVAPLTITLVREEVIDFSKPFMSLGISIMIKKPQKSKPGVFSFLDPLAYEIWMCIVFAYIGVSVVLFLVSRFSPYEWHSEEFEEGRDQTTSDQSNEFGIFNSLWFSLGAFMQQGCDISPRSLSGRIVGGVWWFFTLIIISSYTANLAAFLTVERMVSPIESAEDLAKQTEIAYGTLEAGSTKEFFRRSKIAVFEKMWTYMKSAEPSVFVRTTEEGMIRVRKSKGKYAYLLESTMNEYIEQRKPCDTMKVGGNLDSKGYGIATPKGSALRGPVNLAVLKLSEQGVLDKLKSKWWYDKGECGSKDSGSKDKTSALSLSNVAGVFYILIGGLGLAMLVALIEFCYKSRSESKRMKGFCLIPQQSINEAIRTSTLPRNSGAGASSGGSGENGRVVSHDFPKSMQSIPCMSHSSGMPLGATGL
T1 sequence (Q9Y698 whole entry partner): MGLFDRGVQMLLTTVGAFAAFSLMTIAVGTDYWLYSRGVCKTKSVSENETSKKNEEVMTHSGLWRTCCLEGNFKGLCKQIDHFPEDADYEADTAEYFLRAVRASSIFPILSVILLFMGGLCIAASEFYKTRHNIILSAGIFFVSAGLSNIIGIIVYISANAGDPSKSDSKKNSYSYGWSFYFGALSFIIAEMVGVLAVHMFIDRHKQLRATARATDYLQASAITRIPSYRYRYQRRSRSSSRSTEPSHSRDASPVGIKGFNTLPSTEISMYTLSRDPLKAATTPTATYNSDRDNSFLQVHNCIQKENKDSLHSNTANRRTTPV

This experiment has as its target T1, hGluR1 flip (Homo sapiens, UniProt P42261).
T1 construct: expressed in transfected cells; host or cells: CHO-K1
Put plainly: AMPA receptor function-enhancing activity using calcium influx as index. In kind it is cell-based. The settings on record: test compound 30 μM with 3 mM glutamic acid; CHO-K1/GluR1 flip/stargazin-expressing cells; 100% = 3 mM glutamic acid + 300 μM cyclothiazide, 0% = 3 mM glutamic acid alone. The source says:
Experimental Example 1 Measurement Method of AMPA Receptor Function-Enhancing Activity of Compound Using Calcium Influx as Index
(1) Construction of Expression Gene
Human GluR^1 flip cDNA was amplified by PCR method using forward primer […] (SEQ ID NO: 1) and reverse primer […] (SEQ ID NO: 2) artificially synthesized using human brain-derived cDNA (BD Bioscience) as a template. The amplified product was digested with restriction enzymes EcoRI, NotI (TAKARA SHUZO CO. LTD.) and incorporated into the same site of pcDNA3.1 (+) (Invitrogen) to construct pcDNA3.1(+)/human GluR1 flip gene. Human stargazin cDNA was amplified by PCR method using forward primer […] (SEQ ID NO: 3) and reverse primer […] (SEQ ID NO: 4) artificially synthesized using human hippocampus cDNA as a template. The amplified product was digested with restriction enzymes XhoI, BamHI (TAKARA SHUZO CO. LTD.) and incorporated into the same site of pcDNA3.1(−) (Invitrogen) to construct pcDNA3.1 Zeo(−)/human stargazing gene.
(2) Construction of GluR1 Flip/Stargazin Expressing Cell
CHO-K1 cells passaged in a culture medium (Ham's F12 medium (Invitrogen) added with 10% inactivated fetal bovine serum (Morgate) and penicillin, streptomycin (Invitrogen)) were detached using 0.05% trypsin and 0.53 mM EDTA (Invitrogen) diluted with D-PBS(−). The detached cells were suspended in a culture medium, and recovered by centrifugation at 1,000 rpm. The recovered cells were re-suspended in D-PBS(−) and added into 0.4 cm electroporation cuvette (BioRad). pcDNA3.1(+)/human GluR1 flip gene (5 μg) and pcDNA3.1 Zeo(−)/human stargazin gene (15 μg) were added, and introduced into CHO-K1 cells under the conditions of 950 μFd, […] and using Gene Pulser II (BioRad). The introduced cells were cultured overnight in a culture medium. The next day, using a selection medium (culture medium added with zeocin (Invitrogen) at 250 μg/mL), the cells were plated in a 96 well plate at 250 cells/well. The clones showing drug resistance were selected, and GluR1 flip/stargazin expression clones were selected by an assay method shown below using calcium influx as an index.
(3) Measurement Method of AMPA Receptor Function-Enhancing Activity of Compound, Using Calcium Influx as an Index
CHO-K1/GluR1 flip/stargazin-expressing cells were plated on a 384 well black bottom transparent plate, and cultured for 2 days in a CO2 incubator (SANYO ELECTRIC Co. Ltd.) at 37° C. The medium of the cell plate was removed. A calcium indicator (Calcium5 Assay Kit, Molecular Devices) was diluted with an assay buffer (HESS (Thermo Fisher Scientific), 0.1% BSA (Merck Millipoer) and 10 mM HEPES (Thermo Fisher Scientific)), and 1.25 mM probenecid (Dojindo Laboratories) was added thereto. The mixture prepared above was added at 30 μL/well (100 μL/well in case of 96 wells) to the well, and the well was left standing in 37° C., CO2 incubator for 1 hr. The cell plate was set in CellLux (PerkinElmer), a mixture (15 μL) (50 μL/well in case of 96 wells) of 9 mM glutamic acid (final concentration 3 mM) diluted with an assay buffer and a test compound (test compound concentration 30 μM) was added thereto, and variation in the amount of fluorescence was measured for 3 min. The variation of fluorescence level of a well added with final concentration 3 mM of glutamic acid and 300 μM cyclothiazide (TOCRIS) was defined as 100%, the variation of fluorescence level of a well added with final concentration 3 mM of glutamic acid alone was defined as 0%, and the activity of the compound was calculated by the following formula. activity (%)=(X−C)/(T−C)×100 • T: variation of fluorescence level of well added with final concentration 3 mM of glutamic acid and 300 μM cyclothiazide • C: variation of fluorescence level of well added with final concentration 3 mM of glutamic acid alone • X: variation of fluorescence level of well added with test compound
As to `CN(CC(F)F)C(=O)c1ccc(-c2cccn3c(=O)cc(C(F)(F)F)nc23)cc1` [Example 2, N-(2,2-difluoroethyl)-N-methyl-4-(4-oxo-2-(trifluoromethyl)-4H-pyrido[1,2-a]pyrimidin-9-yl)benzamide], the activation at 30 µM was determined as 103%.
Still for that read-out and setting: with `O=C(c1ccc(-c2cccn3c(=O)cc(C(F)(F)F)nc23)cc1)N1CCCC(F)(F)C1` [Example 3, 9-(4-((3,3-difluoropiperidin-1-yl)carbonyl)phenyl)-2-(trifluoromethyl)-4H-pyrido[1,2-a]pyrimidin-4-one] the figure was 74.8%.
On to `O=C(c1ccc(-c2cccn3c(=O)cc(C(F)(F)F)nc23)cc1)N1CCC(O)(C(F)(F)F)C1` (centres unmarked) [Example 6, 9-(4-((3-hydroxy-3-(trifluoromethyl)pyrrolidin-1-yl)carbonyl)phenyl)-2 (trifluoromethyl)-4H-pyrido[1,2-a]pyrimidin-4-one], for which the “hGluR1 flip/30 μM (%)” value is 88.7%.
For the compound `CC1(O)CCN(C(=O)c2ccc(-c3cccn4c(=O)cc(C(F)(F)F)nc34)cc2)CC1` [Example 7, 9-(4-((4-hydroxy-4-methylpiperidin-1-yl)carbonyl)phenyl)-2-(trifluoromethyl)-4H-pyrido[1,2-a]pyrimidin-4-one], the activation at 30 µM came out at 94%.
As for `CCC1(O)CCN(C(=O)c2ccc(-c3cccn4c(=O)cc(C(F)(F)F)nc34)cc2)CC1` [Example 8, 9-(4-((4-ethyl-4-hydroxypiperidin-1-yl)carbonyl)phenyl)-2-(trifluoromethyl)-4H-pyrido[1,2-a]pyrimidin-4-one], the activation at 30 µM is 79.6%.
On the same count and under the same terms, with `O=C(c1ccc(-c2cccn3c(=O)cc(C(F)(F)F)nc23)cc1)N1CCC(O)C(F)(F)C1` (centres unmarked) [Example 10, 9-(4-((3,3-difluoro-4-hydroxypiperidin-1-yl)carbonyl)phenyl)-2-(trifluoromethyl)-4H-pyrido[1,2-a]pyrimidin-4-one] the figure was 72.7%.
Still for that read-out and setting: with `O=C(c1ccc(-c2cccn3c(=O)cc(C(F)(F)F)nc23)cc1)N1CCC(O)(C(F)(F)F)C1` (centres unmarked) [Example 15, 9-(4-((3-hydroxy-3-(trifluoromethyl)pyrrolidin-1-yl)carbonyl)phenyl)-2-(trifluoromethyl)-4H-pyrido[1,2-a]pyrimidin-4-one] the figure was 79.9%.
As to `O=C(c1ccc(-c2cccn3c(=O)cc(C(F)(F)F)nc23)cc1)N1CCC(O)(C(F)(F)F)C1` (centres unmarked) [Example 16, 9-(4-((3-hydroxy-3-(trifluoromethyl)pyrrolidin-1-yl)carbonyl)phenyl)-2-(trifluoromethyl)-4H-pyrido[1,2-a]pyrimidin-4-one], the “hGluR1 flip/30 μM (%)” value came to 88.3%.
Regarding `O=C(c1ccc(-c2cccn3c(=O)c(Cl)c(C(F)(F)F)nc23)cc1)N1CCOCC1` [Example 17, 3-chloro-9-(4-(morpholin-4-ylcarbonyl)phenyl)-2-(trifluoromethyl)-4H-pyrido[1,2-a]pyrimidin-4-one], the activation at 30 µM was found to be 95.2%.
Take `O=C(c1ccc(-c2cccn3c(=O)c(Br)c(C(F)(F)F)nc23)cc1)N1CCOC(F)(F)C1` [Example 19, 3-bromo-9-(4-((2,2-difluoromorpholin-4-yl)carbonyl)phenyl)-2-(trifluoromethyl)-4H-pyrido[1,2-a]pyrimidin-4-one]: the activation at 30 µM is 79.4%.
`Cc1c(C(F)(F)F)nc2c(-c3ccc(C(=O)N4CCOC(C(F)F)C4)cc3)cccn2c1=O` (centres unmarked) [Example 23, 9-(4-((2-(difluoromethyl)morpholin-4-yl)carbonyl)phenyl)-3-methyl-2-(trifluoromethyl)-4H-pyrido[1,2-a]pyrimidin-4-one]: the activation at 30 µM was determined as 83.5%.
Consider `Cc1c(C(F)(F)F)nc2c(-c3ccc(C(=O)N4CC(F)(F)C4)cc3)cccn2c1=O` [Example 24, 9-(4-((3,3-difluoroazetidin-1-yl)carbonyl)phenyl)-3-methyl-2-(trifluoromethyl)-4H-pyrido[1,2-a]pyrimidin-4-one], for which the activation at 30 µM stood at 76.9%.
On to `CCN(CCC#N)C(=O)c1ccc(-c2cccn3c(=O)c(Br)c(C(F)(F)F)nc23)cc1` [Example 25, 4-(3-bromo-4-oxo-2-(trifluoromethyl)-4H-pyrido[1,2-a]pyrimidin-9-yl)-N-(2-cyanoethyl)-N-ethylbenzamide], for which the activation at 30 µM worked out at 91%.
On the same count and under the same terms, with `O=C(NCC(F)F)c1ccc(-c2cccn3c(=O)cc(C(F)(F)F)nc23)cc1` [Example 26, N-(2,2-difluoroethyl)-4-(4-oxo-2-(trifluoromethyl)-4H-pyrido[1,2-a]pyrimidin-9-yl)benzamide] the figure was 74.9%.
In the case of `CC1(O)CCN(C(=O)c2ccc(-c3cccn4c(=O)cc(C(F)(F)F)nc34)cc2)C1` (centres unmarked) [Example 28, 9-(4-((3-hydroxy-3-methylpyrrolidin-1-yl)carbonyl)phenyl)-2-(trifluoromethyl)-4H-pyrido[1,2-a]pyrimidin-4-one], the activation at 30 µM was found to be 79.3%.
With `O=C(c1ccc(-c2cccn3c(=O)cc(C(F)(F)F)nc23)cc1)N1CCC(O)(C(F)(F)F)CC1` [Example 33, 9-(4-((4-hydroxy-4-(trifluoromethyl)piperidin-1-yl)carbonyl)phenyl)-2-(trifluoromethyl)-4H-pyrido[1,2-a]pyrimidin-4-one], the activation at 30 µM was determined as 79.4%.
As for `O=C(NCC(F)(F)F)c1ccc(-c2cccn3c(=O)c(Cl)c(C(F)(F)F)nc23)cc1` [Example 35, 4-(3-chloro-4-oxo-2-(trifluoromethyl)-4H-pyrido[1,2-a]pyrimidin-9-yl)-N-(2,2,2-trifluoroethyl)benzamide], the activation at 30 µM was determined as 79.8%.
Same read-out and setting: then `O=C(c1ccc(-c2cccn3c(=O)cc(C(F)(F)F)nc23)cc1)N1CCCC(O)(C(F)(F)F)C1` (centres unmarked) [Example 36, 9-(4-((3-hydroxy-3-(trifluoromethyl)piperidin-1-yl)carbonyl)phenyl)-2-(trifluoromethyl)-4H-pyrido[1,2-a]pyrimidin-4-one], with 101%; and `Cc1c(C(F)(F)F)nc2c(-c3ccc(C(=O)N4CCOCC4)cc3)cccn2c1=O` [Example 37, 3-methyl-9-(4-(morpholin-4-ylcarbonyl)phenyl)-2-(trifluoromethyl)-4H-pyrido[1,2-a]pyrimidin-4-one], with 74.9%.
The same measure, in the same setting: with `N#CC1CCCN(C(=O)c2ccc(-c3cccn4c(=O)c(Cl)c(C(F)(F)F)nc34)cc2)C1` (centres unmarked) [Example 38, 1-(4-(3-chloro-4-oxo-2-(trifluoromethyl)-4H-pyrido[1,2-a]pyrimidin-9-yl)benzoyl)piperidine-3-carbonitrile] the figure was 99.3%; with `CN(CCC#N)C(=O)c1ccc(-c2cccn3c(=O)c(Cl)c(C(F)(F)F)nc23)cc1` [Example 39, 4-(3-chloro-4-oxo-2-(trifluoromethyl)-4H-pyrido[1,2-a]pyrimidin-9-yl)-N-(2-cyanoethyl)-N-methylbenzamide], 85.9%; with `O=C(NCC(F)F)c1ccc(-c2cccn3c(=O)cc(C(F)(F)F)nc23)cc1F` [Example 42], 83.6%.
Same read-out and setting: with `O=C(NCC(F)(F)F)c1ccc(-c2cccn3c(=O)cc(C(F)(F)F)nc23)cc1F` [Example 43, 2-fluoro-4-(4-oxo-2-(trifluoromethyl)-4H-pyrido[1,2-a]pyrimidin-9-yl)-N-(2,2,2-trifluoroethyl)benzamide] the figure was 84.1%.
